Measured values taken from patent publication US6806230B1, “Pyrimidine derivatives and herbicides containing them” (Kumiai Chemical Industry Co., Ltd., priority 1999, dated 2004).

What was measured:
barnyard grass (Eo) [1] = assay: Test Example 1: herbicidal effects by flooded paddy field treatment; type: in vivo; settings: dose 100 gai/10a, examined on 21st day after treatment, index 0-5 per Table 44;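 note: 0-5 growth inhibition grade; 5 = over 90%; 4 = 70-90%; 3 = 50-70%; 2 = 30-50%; 1 = 10-30%; 0 = under 10%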
Summary of the method: (§1)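 Puddled paddy soil in pots, seeds sown, 3 cm flood. Day after sowing: wettable powder diluted in water, applied dropwise to water surface, 100 g a.i./10 ares. Greenhouse; visual herbicidal rating at day 21 post-treatment.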

monochoria (Mo) [2] = assay: as above; type: in vivo; settings: dose 100 gai/10a, examined on 21st day after treatment, index 0-5 per Table 44
Summary of the method: as §1

barnyard grass (Ec) [3] = assay: Test Example 2: herbicidal effects by upland soil treatment; type: in vivo; parameters: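 0-5 growth inhibition grade; 5 = over 90%; 4 = 70-90%; 3 = 50-70%; 2 = 30-50%; 1 = 10-30%; 0 = under 10%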; settings: dose 100 g active ingredient per 10 ares, examined on the 21st day after treatment, standards of Table 44
Summary of the method: (§2)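 Pre-emergence test: barnyard grass and green foxtail sown in upland soil, then soil surface sprayed with wettable-powder formulation at 100 g active ingredient per 10 ares (100 l per 10 ares). Grown in greenhouse; herbicidal effect scored on a rating scale 21 days after treatment.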

green foxtail (Se) = assay: as above; type: in vivo; settings: dose 100 g active ingredient per 10 ares, examined on the 21st day after treatment, standards of Table 44;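 note: 0-5 growth inhibition grade; 5 = over 90%; 4 = 70-90%; 3 = 50-70%; 2 = 30-50%; 1 = 10-30%; 0 = under 10%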
Summary of the method: as §2

barnyard grass (Ec) [4] = assay: Test Example 3: herbicidal effects by foliage treatment in upland field; type: in vivo; parameters: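 0-5 growth inhibition grade; 5 = over 90%; 4 = 70-90%; 3 = 50-70%; 2 = 30-50%; 1 = 10-30%; 0 = under 10%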; settings: dose 100 g active ingredient per 10 ares, examined on the 14th day after treatment
Summary of the method: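 Barnyard grass and green foxtail were grown in upland soil for 2 weeks in a greenhouse. A water-diluted wettable powder was sprayed over the foliage at 100 l per 10 ares, giving 100 g active ingredient per 10 ares. Herbicidal effect was scored on day 14 after treatment.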

barnyard grass (Eo) [5] = assay: Test Example 4: selectivity for a crop plant by flooded paddy field treatment; type: in vivo; parameters: scale not given here; settings: dose 25 g active ingredient per 10 ares, examined on the 21st day after treatment
Summary of the method: (§3)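 Flooded paddy pots, 3 cm water; weeds sown from seed, rice transplanted at 2nd-leaf stage. Day after: wettable powder diluted in water, applied dropwise to water surface, 25 g a.i./10 a. Greenhouse; herbicidal effect rated at day 21.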

monochoria (Mo) [6] = assay: as above; type: in vivo; parameters: scale not given here; settings: dose 25 g active ingredient per 10 ares, examined on the 21st day after treatment
Summary of the method: as §3

rice (Or) = assay: as above; type: in vivo; parameters: scale not given here; settings: rice transplanted at second leaf stage, dose 25 g active ingredient per 10 ares, examined on the 21st day after treatment
Summary of the method: as §3

barnyard grass (Ec) [7] = assay: Test Example 5: selectivity for a crop plant by soil treatment in upland field; type: in vivo; parameters: scale not given here; settings: dose 25 gai/10a, 21st day after treatment, index per Table 44
Experimental: (§4) In a 80 cm^2 plastic pot, upland soil was filled, and seeds of barnyard grass (Ec), green foxtail (Se), soybean (G1), wheat (Tr) and corn (Ze) were sown and covered with soil. A wettable powder prepared in accordance with Formulation Example 1 was diluted with water and uniformly applied to the soil surface by a small size spray at a rate of 100 l per 10 ares so that the dose of the active ingredient would be 25 g per 10 ares. Thereafter, cultivation was carried out in a green house, and on the 21st day after the treatment, the herbicidal effects were examined in accordance with the standards of Table 44.

corn (Ze) = assay: as above; type: in vivo; parameters: scale not given here; settings: dose 25 gai/10a, 21st day after treatment, index per Table 44
Experimental: as §4

soybean (G1) = assay: as above; type: in vivo; parameters: scale not given here; settings: dose 25 gai/10a, 21st day after treatment, index per Table 44
Experimental: as §4

wheat (Tr) = assay: as above; type: in vivo; parameters: scale not given here; settings: dose 25 gai/10a, 21st day after treatment, index per Table 44
Experimental: as §4
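Throughout, for Herbicidal effect index, Mo: 0-5 growth inhibition grade; 5 = over 90%; 4 = 70-90%; 3 = 50-70%; 2 = 30-50%; 1 = 10-30%; 0 = under 10%.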

| SMILES | melting point | Or (effect on crop plant rice, index) (rice (Or)) | Herbicidal effect index, Eo (barnyard grass (Eo) [1]) | Herbicidal effect index, Mo (monochoria (Mo) [2]) | herbicidal effects, Ec (barnyard grass) (barnyard grass (Ec) [3]) | herbicidal effects, Se (green foxtail) (green foxtail (Se)) | Ec (herbicidal effects, index) (barnyard grass (Ec) [4]) | Eo (herbicidal effects, index) (barnyard grass (Eo) [5]) | Mo (herbicidal effects, index) (monochoria (Mo) [6]) | Ec (herbicidal effect index) (barnyard grass (Ec) [7]) | Ze (herbicidal effect index on crop) (corn (Ze)) | Gl (herbicidal effect index on crop) (soybean (G1)) | Tr (herbicidal effect index on crop) (wheat (Tr)) |
| --- | --- | --- | --- | --- | --- | --- | --- | --- | --- | --- | --- | --- | --- |
| Cc1ccccc1CC(=O)N(C)C(c1cncnc1C(F)(F)F)C(C)C (racemic) [Compound 1-50] |  | 1 | 5 | 5 | 5 | 5 | 4 | 5 | 5 | 4 | 0 | 3 | 3 |
| CCN(C(=O)Cc1ccc(C)cc1)C(c1cncnc1C(F)(F)F)C(C)C (racemic) [Compound 1-61] |  | 1 | 5 | 5 | 5 | 5 | 4 | 5 | 5 | 5 | 0 | 1 | 3 |
| CC(C)C(c1cncnc1C(F)(F)F)N(C(=O)Cc1ccc(Cl)cc1)C1CC1 (racemic) [Compound 1-81] |  | 0 | 5 | 5 | 5 | 5 | 4 | 5 | 5 | 4 | 0 | 0 | 1 |
| CCC(C)C(c1cncnc1C(F)(F)F)N(C)C(=O)Cc1ccc(C)cc1 (mixture of isomers) [Compound 1-60] |  | 1 | 5 | 5 | 5 | 5 | 4 | 5 | 5 | 5 | 0 | 1 | 2 |
| CCN(C(=O)Cc1ccc(Cl)cc1)C(c1cncnc1C(F)(F)F)C(C)C (racemic) [Compound 1-48] |  | 1 | 5 | 5 | 5 | 5 | 5 | 5 | 5 | 4 | 0 | 0 | 1 |

The next lines start with results.

| melting point | Or (effect on crop plant rice, index) (rice (Or)) | SMILES | Herbicidal effect index, Eo (barnyard grass (Eo) [1]) | Herbicidal effect index, Mo (monochoria (Mo) [2]) | herbicidal effects, Ec (barnyard grass) (barnyard grass (Ec) [3]) | herbicidal effects, Se (green foxtail) (green foxtail (Se)) | Ec (herbicidal effects, index) (barnyard grass (Ec) [4]) | Eo (herbicidal effects, index) (barnyard grass (Eo) [5]) | Mo (herbicidal effects, index) (monochoria (Mo) [6]) | Ec (herbicidal effect index) (barnyard grass (Ec) [7]) | Ze (herbicidal effect index on crop) (corn (Ze)) | Gl (herbicidal effect index on crop) (soybean (G1)) | Tr (herbicidal effect index on crop) (wheat (Tr)) |
| --- | --- | --- | --- | --- | --- | --- | --- | --- | --- | --- | --- | --- | --- |
| 168 to 170 °C |  | CC(C(=O)N(C)C(c1cncnc1C(=O)O)C(C)C)c1ccc(Cl)cc1 (single isomer, unassigned) [Compound 1-718, 5-(1-{[2-(4-chlorophenyl)-propionyl]methylamino}-2-methylpropyl)-pyrimidine-4-carboxylic acid] |  |  |  |  |  |  |  |  |  |  |  |
|  | 0 | CCC(C)C(c1cncnc1C(F)(F)F)N(C)C(=O)Cc1ccc(Cl)cc1 (mixture of isomers) [Compound 1-59] | 5 | 5 | 5 | 5 | 4 | 5 | 5 | 5 | 0 | 0 | 1 |
